The nature of data set [1]: Solubility of synthesized peptide. The data set is classed as physicochemical. Particulars: chemically synthesized peptide, in inhibitor screening assay. On the procedure: (§1) We prepared the C4m-3127 cyclic peptide using chemical synthesis and examined its properties. First, the inhibitory activity was tested using a kit (CTLA-4:B7-1[Biotinylated] Inhibitor Screening Assay, BPS Bioscience Inc.) (Figure 5A). […] In a sequence of C4m-3127, the GG linker behind C-terminal Cys had mutated into Glu and Arg.

In data set [2] the target is T1, interaction between CTLA-4 and B7-1 (Homo sapiens, UniProt P16410).
T1 construct: purchased BPS Bioscience Inc
T1 sequence (P16410 36-161 limits assumed): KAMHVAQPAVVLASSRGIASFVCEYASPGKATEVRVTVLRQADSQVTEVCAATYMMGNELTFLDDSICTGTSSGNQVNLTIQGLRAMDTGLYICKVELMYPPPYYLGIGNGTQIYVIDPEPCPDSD
The data set is described as follows: CTLA-4:B7-1[Biotinylated] Inhibitor Screening Assay (BPS Bioscience kit). It counts as binding. Particulars: for IC50: inhibition of CTLA-4:B7-1 interaction, luminescence, four-parameter logistic fit, read-out: IC50. On the procedure: as §1
A cyclic peptide with a low EC50 value was synthesized by adding glycine to the N-terminus at Toray Research Center.
(B) Flow cytometry affinity analysis.

Data set [3] concerns the target T2, CTLA-4 (Homo sapiens, UniProt P16410).
T2 sequence (P16410 36-223): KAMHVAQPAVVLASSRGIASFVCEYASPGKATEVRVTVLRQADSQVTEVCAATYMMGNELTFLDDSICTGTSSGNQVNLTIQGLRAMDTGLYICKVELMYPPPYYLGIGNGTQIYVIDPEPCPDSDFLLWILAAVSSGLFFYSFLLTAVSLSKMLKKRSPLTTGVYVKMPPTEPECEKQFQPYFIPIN
In words: Competitive ELISA against biotinylated C4m-3127 peptide. It counts as binding. The conditions noted are these: competition with 30 μM biotinylated C4m-3127 peptide on immobilized CTLA-4; data not shown. On the procedure: Competition experiments were performed using biotinylated C4m-3127 peptide instead of biotinylated B7-1 in the CTLA-4:B7-1[Biotinylated] inhibitor screening assay. The biotinylated C4m-3127 peptide was optimized to a concentration of 30 μM in an earlier experiment. CTLA-4 immobilized on a 384-well plate was reacted with PGF00506 in 11-point two-fold serial dilution from 1000 to 0.98 μM by assay buffer. Then, the biotinylated peptides were added to wells for competitive reaction. After washing, the residual amounts of biotinylated peptides were detected using streptavidin-HRP.

Data set [4] has as its target T2, CTLA-4. The data set is described as follows: ELISA-based determination of EC50 value of MBP–peptide–His-tag fusion constructs. It counts as binding. On the procedure:
Peptides with binding specificity for CTLA-4 were overexpressed as fusion proteins with MBP at the N-terminus and His-tag at the C-terminus. After BL21(DE3) E. coli cells were transformed, the fusion constructs were grown in 200 mL of 2xYT/[…] ampicillin at 37 °C until an OD600 of 0.5–0.8 was reached. Then, IPTG (0.5 mM) was added. The broth was incubated at 25 °C with shaking overnight. After the cell broth was centrifuged, the pellet was resuspended in 20 mM Tris-HCl pH 7.5/500 mM NaCl and sonicated (Bioruptor UCD-250, Sonicbio Co. Ltd., Kanagawa, Japan). The sample was centrifuged, then the supernatant was purified on Ni Sepharose^TM 6FF (Cytiva, Tokyo, Japan). The purified sample was buffer exchanged to PBS by dialysis and quantified using a kit (BCA Protein Assay Kit, Thermo Fisher Scientific, Waltham, MA, USA).
CTLA-4 (5 μg/mL) was coated onto a NUNC® Maxisoap^TM 384 well plate and incubated at 4 °C overnight. After the wells were washed twice with TBS/0.05% Tween-20, they were blocked with 100 μL of TBS/0.05% Tween-20/5% skim milk by incubating at RT for 1 h with shaking. […] The absorbance was measured at 450 nm/650 nm with a microplate reader (Infinite F200, Tecan Japan Co., Ltd., Kanagawa, Japan). The absorbance versus the concentration of MBP–peptide–His-tag fusion was found. The midpoint concentration was determined as the half-maximal effective concentration (EC50) value.
Background: In an ELISA, binding on a coated surface is turned into a signal by an enzyme label.

Like-named read-outs stand apart in the source and are kept apart here. Positions of bridges follow the written chain, without caps; N, C: chain ends. Residues, ends and D or L forms follow the SMILES beside them. MBP = not defined here

For the molecule `CC[C@H](C)[C@@H]1NC(=O)[C@@H]2CCCN2C(=O)[C@H](CC(C)C)NC(=O)[C@H](Cc2ccccc2)NC(=O)[C@@H]2CCCN2C(=O)[C@H](Cc2c[nH]cn2)NC(=O)[C@H](CCSC)NC(=O)[C@@H](NC(=O)CN)CSSC[C@@H](C(=O)N[C@@H](CCC(=O)O)C(=O)N[C@@H](CCCNC(=N)N)C(=O)O)NC(=O)[C@H](Cc2ccccc2)NC(=O)[C@H](Cc2c[nH]cn2)NC(=O)[C@H](Cc2c[nH]cn2)NC(=O)[C@H](CO)NC(=O)[C@H](C(C)C)NC1=O` [C4m-3127 peptide] (H-GCMHPFLPIVSHHFCER-OH; disulfide 2-15; N-terminus and C-terminus assumed), the solubility entry in data set [1] is “improved solubility”.
Consider `N=C(N)NCCC[C@H]1C(=O)N(CCC(c2ccccc2)c2ccccc2)C[C@@H]2N(C(=O)OCc3ccccc3)O[C@H](CC3CCCCC3)C(=O)N21` [PGF00506, Benzyl (3R,6S,9aS)-3-(cyclohexylmethyl)-8-(3,3-diphenylpropyl)-6-(3-guanidinopropyl)-4,7-dioxohexahydropyrazino [2,1-c][1,2,4]oxadiazine-1(6H)-carboxylate], for which the IC50 in data set [2] came out at 6.8 µM; on CTLA-4 [3] it was 10.5 µM. For the same molecule, the “inhibitory activity compared to PGF00432” value in data set [2] (ratio of IC50 values) was 43 fold. In addition, the “inhibitory activity compared to C4m-3127” value in data set [2] (ratio of IC50 values, C4m-3127 synthetic peptide IC50 = 11.5 μM) worked out at 1.7 fold.
Turning to “C4m-3127: best binder clone from affinity maturation of C4-302, random loop MHPFLPIVSHHF, expressed as MBP fusion protein ({MBP}-CMHPFLPIVSHHFCER-{His‑tag}; disulfide 1-14 (inferred); not fully specified; reading uncertain)”, the “affinity relative to C4-302” value with CTLA-4 [4] (MBP fusion protein, times greater affinity than C4-302) came to 50 times. This molecule also returned a half-maximal effective concentration (EC50) in the data set with CTLA-4 [4] (purified MBP–peptide–His-tag fusion protein, ELISA on immobilized CTLA-4) of 0.0747 µM. Further, the results for the IC50 in data set [2] (listed as MBP–C4m-3127 peptide–His-tag fusion protein) and in data set [2] were 1.36 µM and 11.5 µM, respectively.

One may read the IC50 as the concentration at which inhibition is half-maximal. The EC50 is the concentration giving half of the maximal effect. Read a low EC50 as an effect from little substance.

Values taken from paper PMC9784018, “Rational Strategy for Designing Peptidomimetic Small Molecules Based on Cyclic Peptides Targeting Protein–Protein Interaction between CTLA-4 and B7-1” (Pharmaceuticals, 2022).
